Measured values: the supplement of paper PMC12592484

Tests used:
Experiment in all cases: drug sensitivity score (DSS2, normalised partial AUC of dose-response, 72 h CellTiter-Glo viability) (DSS (dimensionless)); higher = more sensitive (stronger growth inhibition / cytotoxicity); extreme values may be limits of the assay
[1] = tested on: WPMY-1
Procedure, shortened: (§1)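 In BREEZE, the drug sensitivity score was derived as a partial area under a fitted logistic dose–response curve over the log of that curve's upper asymptote; a higher score marks a more sensitive response. The input came from low-passage primary prostate cancer-associated fibroblasts, PF179T, WPMY-1, LNCaP and 22Rv1 cells, each seeded into 384-well plates with compounds pre-dispensed at five doses spanning a 10,000-fold range. CellTiter-Glo 2.0 luminescence after 72 h gave viability, which was normalized to vehicle and positive-control wells.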

[2] = tested on: CAF#7 (primary prostate cancer-associated fibroblasts of myCAF-like type)
Procedure, shortened: as §1

[3] = tested on: LNCAP
Procedure, shortened: as §1

[4] = tested on: CAF#4 (primary prostate cancer-associated fibroblasts of iCAF-like type)
Procedure, shortened: as §1

[5] = tested on: CAF#2 (primary prostate cancer-associated fibroblasts of iCAF-like type)
Procedure, shortened: as §1

[6] = tested on: CAF#5 (primary prostate cancer-associated fibroblasts of myCAF-like type)
Procedure, shortened: as §1

[7] = tested on: PF179T
Procedure, shortened: as §1

[8] = tested on: CAF#1 (primary prostate cancer-associated fibroblasts of myCAF-like type)
Procedure, shortened: as §1

[9] = tested on: CAF#6 (primary prostate cancer-associated fibroblasts of iCAF-like type)
Procedure, shortened: as §1

[10] = tested on: CAF#3 (primary prostate cancer-associated fibroblasts of myCAF-like type)
Procedure, shortened: as §1

[11] = tested on: 22Rv1
Procedure, shortened: as §1

Row | SMILES | drug sensitivity score [1] | drug sensitivity score [2] | drug sensitivity score [3] | drug sensitivity score [4] | drug sensitivity score [5] | drug sensitivity score [6] | drug sensitivity score [7] | drug sensitivity score [8] | drug sensitivity score [9] | drug sensitivity score [10] | drug sensitivity score [11]
1 | COc1cc2ncnc(Nc3ccc(F)c(Cl)c3)c2cc1OCCCN1CCOCC1 [Gefitinib] (tested concentration range 1-10000 nM) | 2.1 | 0.2 | 2.6 | 2.8 | 2 | 0.5 | 1.7 | 0 | 0.2 | 0.2 | 3.9
2 | Nc1ccn([C@@H]2O[C@H](CO)[C@@H](O)C2(F)F)c(=O)n1 [Gemcitabine] (tested concentration range 0.1-1000 nM) | 22.5 | 7.2 | 16.4 | 8 | 10 | 5.6 | 18 | 3.1 | 4.4 | 3.9 | 20.9
3 | CCc1nc(C(N)=O)c(Nc2ccc(N3CCC(N4CCN(C)CC4)CC3)c(OC)c2)nc1NC1CCOCC1 [Gilteritinib] (tested concentration range 0.1-1000 nM) | 5.2 | 0 | 0 | 0 | 0 | 0.1 | 1.3 | 0.3 | 0 | 0 | 1.7
4 | CCN(CC)Cc1ccc2cc(COC(=O)Nc3ccc(C(=O)NO)cc3)ccc2c1 [Givinostat] (tested concentration range 0.1-1000 nM) | 11.4 | 3.1 | 9.3 | 2.3 | 4.2 | 4.9 | 3.9 | 2.4 | 3.6 | 1.8 | 9.8
5 | CN1CC[C@@H](NC(=O)Nc2ccc(C#N)cc2)C[C@@H]1c1nc2ccccc2[nH]1 [Glasdegib] (tested concentration range 0.1-1000 nM) | 0 | 0 | 0 | 0 | 0 | 0 | 0 | 0 | 0.3 | 0.1 | 0
6 | COCCNCc1ccc(-c2cc3nccc(Oc4ccc(NC(=S)NC(=O)Cc5ccc(F)cc5)cc4F)c3s2)nc1 [Glesatinib] (tested concentration range 0.2-2500 nM) | 2.5 | 4.2 | 1.3 | 5.7 | 5.1 | 4.3 | 3.4 | 5.6 | 3.4 | 4.4 | 1.4
7 | CC(C)C[C@H](NC(=O)[C@@H](COC(C)(C)C)NC(=O)[C@H](Cc1ccc(O)cc1)NC(=O)[C@H](CO)NC(=O)[C@H](Cc1c[nH]c2ccccc12)NC(=O)[C@H](Cc1cnc[nH]1)NC(=O)[C@@H]1CCC(=O)N1)C(=O)N[C@@H](CCCNC(=N)N)C(=O)N1CCC[C@H]1C(=O)NNC(N)=O [Goserelin] (tested concentration range 1-10000 nM) | 0 | 0 | 0 | 0 | 0 | 0.2 | 0 | 0 | 0.6 | 0 | 0
8 | O=S(=O)(c1cccc2c(O)nccc12)N1CCCNCC1 [Hydroxyfasudil] (tested concentration range 1.9-19000 nM) | 0.3 | 0 | 0 | 0 | 0 | 0 | 0 | 0 | 0 | 0 | 0
9 | NC(=O)NO [Hydroxyurea] (tested concentration range 100-1000000 nM) | 5 | 0 | 4.6 | 0.2 | 5.5 | 2.5 | 2.4 | 1.9 | 0 | 0.5 | 3.8
10 | O=C(O)c1ccc(O)c2ncccc12 [IOX-1] (tested concentration range 10-100000 nM) | 0.8 | 0.4 | 6.9 | 2.6 | 1.7 | 0.8 | 3.9 | 0.1 | 0.8 | 0.3 | 0.9
11 | O=C(O)CNC(=O)c1c(O)c2ccccc2n(Cc2ccccc2)c1=O [IOX-2] (tested concentration range 2.5-25000 nM) | 0 | 0 | 0 | 0 | 0 | 0 | 0 | 0 | 0 | 0 | 0
12 | C=CC(=O)N1CCC[C@@H](n2nc(-c3ccc(Oc4ccccc4)cc3)c3c(N)ncnc32)C1 [Ibrutinib] (tested concentration range 0.1-1000 nM) | 0 | 0 | 0 | 0 | 0 | 0.7 | 0 | 0.1 | 0 | 0.2 | 0
13 | C#Cc1cccc(Nc2ncnc3cc4c(cc23)OCCOCCOCCO4)c1 [Icotinib] (tested concentration range 1-10000 nM) | 0 | 0 | 0 | 0 | 0 | 0 | 0 | 0.3 | 0 | 2.3 | 0.7
14 | CC(=O)[C@]1(O)Cc2c(O)c3c(c(O)c2[C@@H](O[C@H]2C[C@H](N)[C@H](O)[C@H](C)O2)C1)C(=O)c1ccccc1C3=O [Idarubicin] (tested concentration range 0.1-1000 nM) | 16.4 | 9.3 | 19.9 | 7.5 | 12.1 | 7.9 | 12.5 | 7.6 | 8.5 | 4.4 | 12.9
15 | COc1cc(C(=O)O)ccc1NC(=O)[C@@H]1N[C@@H](CC(C)(C)C)[C@](C#N)(c2ccc(Cl)cc2F)[C@H]1c1cccc(Cl)c1F [Idasanutlin] (tested concentration range 1-10000 nM) | 1.9 | 10.2 | 0 | 11.5 | 13.5 | 12.5 | 16.7 | 12.5 | 10.6 | 5.1 | 12.7
16 | CC[C@H](Nc1ncnc2[nH]cnc12)c1nc2cccc(F)c2c(=O)n1-c1ccccc1 [Idelalisib] (tested concentration range 1-10000 nM) | 1.3 | 3.9 | 10.2 | 5.6 | 4.5 | 3.6 | 5.4 | 3.4 | 3.2 | 4.6 | 2
17 | Cc1ccc(NC(=O)c2ccc(CN3CCN(C)CC3)cc2)cc1Nc1nccc(-c2cccnc2)n1 [Imatinib] (tested concentration range 1-10000 nM) | 0.6 | 0.7 | 2.2 | 2 | 2.6 | 0.6 | 0 | 0.3 | 1.7 | 1.7 | 1.6
18 | CC(C)Cn1cnc2c(N)nc3ccccc3c21 [Imiquimod] (tested concentration range 0.2-2500 nM) | 0 | 0 | 0 | 0 | 0 | 0 | 0 | 1.4 | 0 | 0.1 | 0
19 | Cn1cc(C[C@@H](N)C(=O)O)c2ccccc21 [Indoximod] (tested concentration range 0.5-5000 nM) | 0 | 0 | 0 | 0 | 0 | 0.6 | 0 | 0 | 0 | 0 | 0
20 | CCN1CCN(c2ccc(Nc3cc(N(C)C(=O)Nc4c(Cl)c(OC)cc(OC)c4Cl)ncn3)cc2)CC1 [Infigratinib] (tested concentration range 0.1-1000 nM) | 0 | 0 | 0 | 0 | 0 | 0 | 0 | 0 | 0 | 0 | 0
21 | CC(C)NC[C@@H](C(=O)N1CCN(c2ncnc3c2[C@H](C)C[C@H]3O)CC1)c1ccc(Cl)cc1 [Ipatasertib] (tested concentration range 1-10000 nM) | 2 | 0 | 22.6 | 0.1 | 1.2 | 1.1 | 0 | 0.6 | 1.7 | 1.8 | 5.7
22 | CCC(C)n1ncn(-c2ccc(N3CCN(c4ccc(OCC5COC(Cn6cncn6)(c6ccc(Cl)cc6Cl)O5)cc4)CC3)cc2)c1=O (stereo not drawn) [Itraconazole] (tested concentration range 0.5-5000 nM) | 4.2 | 1.2 | 5.3 | 0.2 | 1.2 | 0 | 1 | 0 | 1.6 | 2.7 | 2.7
23 | N#Cc1ccnc(N2C(=O)CC[C@H]2C(=O)N(c2cncc(F)c2)[C@H](C(=O)NC2CC(F)(F)C2)c2ccccc2Cl)c1 [Ivosidenib] (tested concentration range 1-10000 nM) | 0.2 | 0 | 0 | 2 | 1.4 | 0.3 | 0 | 0.7 | 0 | 0 | 0
